Data published in patent US8242118B2, “Arylsulfonamide derivatives for use as CCR3 antagonists in the treatment of inflammatory and immunological disorders” (Axikin Pharmaceuticals Inc., priority 2001, dated 2012).
Counter-ions that a name gives are not always drawn.

SMILES: Cc1cc(C)cc(Oc2ccc([N+](=O)[O-])cc2S(=O)(=O)N2CCNCC2)c1 (as salt: hydrochloride) [Example 1-2, 1-{[2-(3,5-dimethylphenoxy)-5-nitrophenyl]sulfonyl}piperazine hydrochloride]
- melting point: 264 to 266 °C

SMILES: Cc1cc(C)cc(Sc2ccc([N+](=O)[O-])cc2S(=O)(=O)N2CCNCC2)c1 (as salt: hydrochloride) [Example 2-1, 1-({2-[(3,5-dimethylphenyl)-sulfanyl]-5-nitrophenyl}sulfonyl)piperazine hydrochloride]
- melting point: 225 to 227 °C

SMILES: Cc1cc(C)cc(Nc2ccc([N+](=O)[O-])cc2S(=O)(=O)N2CCNCC2)c1 (as salt: hydrochloride) [Example 3-1, N-(3,5-dimethyl-phenyl)-4-nitro-2-(1-piperazinylsulfonyl)aniline dihydrochloride]
- melting point: 175 to 179 °C

SMILES: Cc1cc(C)cc(Oc2ccc(Cl)cc2S(=O)(=O)N2CCNCC2)c1 (as salt: hydrochloride) [Example 5-2, 1-{[5-chloro-2-(3,5-dimethylphenoxy)phenyl]sulfonyl}piperazine hydrochloride]
- melting point: 202 to 204 °C

SMILES: COc1ccc(Oc2cc(C)cc(C)c2)c(S(=O)(=O)N2CCNCC2)c1 (as salt: hydrochloride) [Example 6-2]
- melting point: 175 to 177 °C

SMILES: CN(C)C(=O)c1ccc(Oc2cc(Cl)cc(Cl)c2)c(S(=O)(=O)N2CCNCC2)c1 (as salt: hydrochloride) [Example 10-1, 4-(3,5-dichlorophenoxy)-N,N-dimethyl-3-(1-piperazinylsulfonyl)benzamide hydrochloride]
- melting point: 197 to 199 °C

SMILES: N#Cc1ccc(Oc2cc(Cl)cc(Cl)c2)c(S(=O)(=O)N2CCCNCC2)c1 (as salt: hydrochloride) [Example 12-1, 3-(1,4-diazepan-1-ylsulfonyl)-4-(3,5-dichlorophenoxy)benzonitrile hydrochloride]
- melting point: 278 to 280 °C

SMILES: N#Cc1ccc(Oc2cc(Cl)cc(Cl)c2)c(S(=O)(=O)N2CC[C@H](N)C2)c1 (as salt: hydrochloride) [Example 13-1, 1-{5-cyano-2-(3,5-dichlorophenoxy)phenylsulfonyl}-(3S)-aminopyrrolidine hydrochloride]
- melting point: 276 °C

SMILES: COC(=O)c1ccc(Oc2cc(C)cc(C)c2)c(S(=O)(=O)N2CCNCC2)c1 (as salt: hydrochloride) [Example 15-2, methyl 4-(3,5-dimethylphenoxy)-3-(1-piperazinylsulfonyl)benzoate hydrochloride]
- melting point: 120 °C

SMILES: Cc1cc(C)cc(Oc2ccc(CO)cc2S(=O)(=O)N2CCNCC2)c1 (as salt: hydrochloride) [Example 16-1, [4-(3,5-dimethylphenoxy)-3-(1-piperazinylsulfonyl)phenyl]methanol hydrochloride]
- melting point: 160 °C

SMILES: N#Cc1ccc(Sc2cc(Cl)cc(Cl)c2)c(S(=O)(=O)N2CCNCC2)c1 (as salt: hydrochloride) [Example 17-1, 4-[(3,5-dichlorophenyl)sulfanyl]-3-(1-piperazinylsulfonyl)benzonitrile hydrochloride]
- melting point: 82 °C

SMILES: N#Cc1ccc(S(=O)(=O)c2cc(Cl)cc(Cl)c2)c(S(=O)(=O)N2CCNCC2)c1 (as salt: hydrochloride) [Example 18-1, 4-[(3,5-dichlorophenyl)sulfonyl]-3-(1-piperazinylsulfonyl)benzonitrile hydrochloride]
- melting point: 258 °C

SMILES: N#Cc1ccc([S+]([O-])c2cc(Cl)cc(Cl)c2)c(S(=O)(=O)N2CCNCC2)c1 (stereo not shown) (as salt: hydrochloride) [Example 19-1, 4-[(3,5-dichlorophenyl)sulfinyl]-3-(1-piperazinylsulfonyl)benzonitrile hydrochloride]
- melting point: 219 °C

SMILES: CN(c1cc(Cl)cc(Cl)c1)c1ccc(C#N)cc1S(=O)(=O)N1CCNCC1 (as salt: hydrochloride) [Example 21-1, 4-[(3,5-dichlorophenyl)(methyl)amino]-3-(1-piperazinylsulfonyl)benzonitrile hydrochloride]
- melting point: 163 °C

SMILES: Cc1cc(C)cc(Oc2ccc(C(=O)NCCC#N)cc2S(=O)(=O)N2CCNCC2)c1 (as salt: hydrochloride) [Example 22-1, N-(2-cyanoethyl)-4-(3,5-dimethylphenoxy)-3-(1-piperazinylsulfonyl)benzamide hydrochloride]
- melting point: 101 °C

SMILES: Cc1cc(C)cc(Oc2ccc(C(=O)NCCC(N)=O)cc2S(=O)(=O)N2CCNCC2)c1 (as salt: hydrochloride) [Example 22-2, N-[4-(3,5-dimethylphenoxy)-3-(1-piperazinylsulfonyl)benzoyl]-beta-alanineamide hydrochloride]
- melting point: 121 °C

SMILES: Cc1cc(C)cc(Oc2ccc(-c3nnnn3CCC#N)cc2S(=O)(=O)N2CCNCC2)c1 (as salt: hydrochloride) [Example 22-3, 3-{5-[4-(3,5-dimethylphenoxy)-3-(1-piperazinylsulfonyl)phenyl]-1H-tetraazol-1-yl}propanenitrile hydrochloride]
- melting point: 125 °C

SMILES: Cc1cc(C)cc(Oc2ccc(-c3nnn[nH]3)cc2S(=O)(=O)N2CCNCC2)c1 (as salt: hydrochloride) [Example 22-4, 1-{[2-(3,5-dimethylphenoxy)-5-(1H-tetraazol-5-yl)phenyl]sulfonyl}piperazine hydrochloride]
- melting point: 213 °C

SMILES: Cc1cc(C)cc(Oc2cc([N+](=O)[O-])ccc2S(=O)(=O)N2CCNCC2)c1 (as salt: hydrochloride) [Example 23-1, 1-{2-(3,5-dimethylphenoxy)-4-nitrophenylsulfonyl}piperazine hydrochloride]
- melting point: 284 °C

SMILES: Cc1cc(C)cc(Oc2cc(Br)cc(S(=O)(=O)N3CCNCC3)c2)c1 (as salt: hydrochloride) [Example 24-1, 1-{[3-bromo-5-(3,5-dimethylphenoxy)phenyl]sulfonyl}piperazine hydrochloride]
- melting point: > 84 °C (dec.)

SMILES: Cc1cc(C)cc(Oc2ccncc2S(=O)(=O)N2CCNCC2)c1 (as salt: hydrochloride) [Example 25-1, 1-{[4-(3,5-dimethylphenoxy)-3-pyridinyl]sulfonyl}piperazine hydrochloride]
- melting point: 220 °C

SMILES: Cc1cc(C)cc(Oc2ccc([N+](=O)[O-])cc2S(=O)(=O)N2CCNCC2)c1.O=C(O)C(F)(F)F [Example 1-3]
- melting point: 120 to 125 °C

SMILES: O=[N+]([O-])c1ccc(Oc2cc(Cl)cc(Cl)c2)c(S(=O)(=O)N2CCC(N3CCCC3)CC2)c1 [Example 4-1, 1-{[2-(3,5-dichlorophenoxy)-5-nitrophenyl]sulfonyl}-4-(1-pyrrolidinyl)piperidine]
- melting point: 217 to 218 °C

SMILES: N#Cc1ccc(Oc2cc(Cl)cc(Cl)c2)c(S(=O)(=O)N2CCNCC2)c1 [Example 6-4]
- melting point: 179 to 181 °C

SMILES: N#Cc1ccc(Oc2cc(Cl)cc(Cl)c2)c(S(=O)(=O)N2CCC(N3CCCC3)CC2)c1 [Example 6-5]
- melting point: 186 to 187 °C

SMILES: N#Cc1ccc(Oc2cc(Cl)cc(Cl)c2)c(S(=O)(=O)N2C[C@H]3CCCN[C@H]3C2)c1 [Example 13-6]
- melting point: 164 to 165 °C

SMILES: N#Cc1ccc(Oc2cc(Cl)cc(Cl)c2)c(S(=O)(=O)N2CCNCC2C(=O)O)c1 (stereo not shown) [Example 13-9]
- melting point: 262 °C

SMILES: Cl.N#Cc1ccc(Sc2cc(Cl)cc(Cl)c2)c(S(=O)(=O)N2CCCNCC2)c1 [Example 17-3]
- melting point: 277 to 278 °C
